Each block holds one molecule with its values, some of them ahead of it.
Molecular target: T1, NR2F6 (Homo sapiens, UniProt P10588)
T1 construct: expressed in transfected cells; also transient transfection
T1 sequence (P10588 1-404): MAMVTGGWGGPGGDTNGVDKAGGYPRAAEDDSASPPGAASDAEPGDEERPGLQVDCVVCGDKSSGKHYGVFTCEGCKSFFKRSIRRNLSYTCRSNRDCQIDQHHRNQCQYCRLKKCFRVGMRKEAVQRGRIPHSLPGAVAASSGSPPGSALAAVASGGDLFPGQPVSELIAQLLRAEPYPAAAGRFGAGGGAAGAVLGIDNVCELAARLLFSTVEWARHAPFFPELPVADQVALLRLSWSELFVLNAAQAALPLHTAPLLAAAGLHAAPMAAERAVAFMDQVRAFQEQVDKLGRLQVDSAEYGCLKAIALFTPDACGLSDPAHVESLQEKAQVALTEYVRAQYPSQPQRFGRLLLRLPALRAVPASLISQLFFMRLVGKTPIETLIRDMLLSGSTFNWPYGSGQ
Assay: NR2F6 agonist screening, Firefly signal cmpd/DMSO
Format: cell-based
Conditions: for Firefly/Renilla (NR2F6 stable, clone F4): ratio Firefly/Renilla; for Firefly, NR2F6 stable (clone F4)/pGL4: ratio of Firefly in NR2F6 stable clone F4 to pGL4

[1] = C11 analogs follow set (Tables 2-10), repeat 1
[2] = C11 analogs follow set (Tables 2-10), repeat 2

Compound: O=c1oc2ccc(F)cc2cc1S(=O)(=O)c1ccccc1 [Compound C212]
- Firefly, cmpd/DMSO repeat 1 [1]: 1.7
- Firefly, cmpd/DMSO repeat 2 [2]: 1.9

Compound: O=c1oc2ccccc2cc1S(=O)(=O)c1ccc(Cl)cc1 [Compound C105]
- Firefly, cmpd/DMSO repeat 1 [1]: 5.7
- Firefly, cmpd/DMSO repeat 2 [2]: 4.8
- Firefly/Renilla (NR2F6 stable, clone F4) (Table 13): 2.6
- Firefly, NR2F6 stable (clone F4)/pGL4 (Table 13): 3.1
- Firefly, cmpd/DMSO repeat 1 (Table 13, repeat 1): 5.7
- Firefly, cmpd/DMSO repeat 2 (Table 13, repeat 2): 4.8

Compound: CCOc1cccc2cc(S(=O)(=O)c3ccc(OC)c(OC)c3)c(=O)oc12 [Compound C248]
- Firefly, cmpd/DMSO repeat 1 (Table 9, repeat 1): 8.6
- Firefly, cmpd/DMSO repeat 2 (Table 9, repeat 2): 4.3
- Firefly/Renilla (NR2F6 stable, clone F4) (Table 12): 2.8
- Firefly, NR2F6 stable (clone F4)/pGL4 (Table 12): 4.6
- Firefly, cmpd/DMSO repeat 1 (Table 12, repeat 1): 8.6
- Firefly, cmpd/DMSO repeat 2 (Table 12, repeat 2): 4.3

Compound: COc1ccc2cc(S(=O)(=O)c3ccc(Br)cc3)c(=O)oc2c1 [Compound C267]
- Firefly, cmpd/DMSO repeat 1 [1]: 1.4
- Firefly, cmpd/DMSO repeat 2 [2]: 1.7

Compound: O=c1oc2ccccc2cc1S(=O)(=O)c1ccccc1F [Compound C108]
- Firefly, cmpd/DMSO repeat 1 [1]: 7.9
- Firefly, cmpd/DMSO repeat 2 [2]: 7.3
- Firefly/Renilla (NR2F6 stable, clone F4) (Table 12): 2.6
- Firefly, NR2F6 stable (clone F4)/pGL4 (Table 12): 5.5
- Firefly, cmpd/DMSO repeat 1 (Table 12, repeat 1): 7.9
- Firefly, cmpd/DMSO repeat 2 (Table 12, repeat 2): 7.3

Compound: O=C(Nc1ccc(Cl)cc1)c1ccc2oc(=O)c(S(=O)(=O)c3ccc(F)cc3)cc2c1 [Compound C129]
- Firefly, cmpd/DMSO repeat 1 [1]: 0.9
- Firefly, cmpd/DMSO repeat 2 [2]: 1.2

Compound: COc1ccc(S(=O)(=O)c2cc3cc(F)ccc3oc2=O)cc1 [Compound C214]
- Firefly, cmpd/DMSO repeat 1 [1]: 1.9
- Firefly, cmpd/DMSO repeat 2 [2]: 1.9

Compound: COc1ccc(S(=O)(=O)c2cc3cc(Br)ccc3oc2=O)cc1OC [Compound C154]
- Firefly, cmpd/DMSO repeat 1 [1]: 35.4
- Firefly, cmpd/DMSO repeat 2 [2]: 35.4
- Firefly/Renilla (NR2F6 stable, clone F4) (Table 13): 1.6
- Firefly, NR2F6 stable (clone F4)/pGL4 (Table 13): 9.1
- Firefly, cmpd/DMSO repeat 1 (Table 13, repeat 1): 35.4
- Firefly, cmpd/DMSO repeat 2 (Table 13, repeat 2): 35.4

Compound: O=c1oc2ccc(Br)cc2cc1S(=O)(=O)c1cccc(F)c1 [Compound C183]
- Firefly, cmpd/DMSO repeat 1 [1]: 1.2
- Firefly, cmpd/DMSO repeat 2 [2]: 1.2

Compound: COc1cccc2cc(S(=O)(=O)c3ccc(C(C)(C)C)cc3)c(=O)oc12 [Compound C234]
- Firefly, cmpd/DMSO repeat 1 (Table 9, repeat 1): 2.2
- Firefly, cmpd/DMSO repeat 2 (Table 9, repeat 2): 1.8

Compound: CCOc1ccc(S(=O)(=O)c2cc3cccc(OCC)c3oc2=O)cc1 [Compound C252]
- Firefly, cmpd/DMSO repeat 1 (Table 9, repeat 1): 3.2
- Firefly, cmpd/DMSO repeat 2 (Table 9, repeat 2): 2.4

Compound: COc1cc(NC(=O)c2ccc3oc(=O)c(S(=O)(=O)c4ccccc4)cc3c2)cc(OC)c1 [Compound C130]
- Firefly, cmpd/DMSO repeat 1 [1]: 2.3
- Firefly, cmpd/DMSO repeat 2 [2]: 3.4

Now from value to molecule:

- Firefly, cmpd/DMSO repeat 1 [1]: 3.4
- Firefly, cmpd/DMSO repeat 2 [2]: 4.2
Compound: Cc1ccc(NC(=O)c2ccc3oc(=O)c(S(=O)(=O)c4ccc(Cl)cc4)cc3c2)c(C)c1 [Compound C166]

- Firefly, cmpd/DMSO repeat 1 (Table 9, repeat 1): 12.5
- Firefly, cmpd/DMSO repeat 2 (Table 9, repeat 2): 8.3
- Firefly/Renilla (NR2F6 stable, clone F4) (Table 12): 2.5
- Firefly, NR2F6 stable (clone F4)/pGL4 (Table 12): 6.5
- Firefly, cmpd/DMSO repeat 1 (Table 12, repeat 1): 12.5
- Firefly, cmpd/DMSO repeat 2 (Table 12, repeat 2): 8.3
Compound: CCOc1cccc2cc(S(=O)(=O)c3cc(F)cc(F)c3)c(=O)oc12 [Compound C230]

- Firefly, cmpd/DMSO (mean) (mean of repeats): 7.3
- Firefly, cmpd repeat 1 (raw signal, repeat 1): 526
- Firefly, cmpd repeat 2 (raw signal, repeat 2): 306
- Firefly, cmpd/DMSO repeat 1 (repeat 1): 9.5
- Firefly, cmpd/DMSO repeat 2 (repeat 2): 5.6
- activity (in words) (screening result): desirable activity
Compound: Cc1cc(C)n2nc(CNS(=O)(=O)c3c(F)c(F)c(F)c(F)c3F)nc2n1 [Compound E21]

- Firefly, cmpd/DMSO repeat 1 (Table 11, repeat 1): 8.5
- Firefly, cmpd/DMSO repeat 2 (Table 11, repeat 2): 11.9
Compound: O=c1oc2c(F)cc(F)cc2cc1S(=O)(=O)c1ccc(Cl)cc1 [Compound C293]

- Firefly, cmpd/DMSO repeat 1 [1]: 8.8
- Firefly, cmpd/DMSO repeat 2 [2]: 10.6
Compound: Cc1ccc(NC(=O)c2ccc3oc(=O)c(S(=O)(=O)c4ccc(F)cc4)cc3c2)cc1C [Compound C169]

- Firefly, cmpd/DMSO repeat 1 [1]: 22.1
- Firefly, cmpd/DMSO repeat 2 [2]: 25.8
- Firefly/Renilla (NR2F6 stable, clone F4) (Table 12): 1.7
- Firefly, NR2F6 stable (clone F4)/pGL4 (Table 12): 8.1
- Firefly, cmpd/DMSO repeat 1 (Table 12, repeat 1): 22.1
- Firefly, cmpd/DMSO repeat 2 (Table 12, repeat 2): 25.8
Compound: Cc1cccc(NC(=O)c2ccc3oc(=O)c(S(=O)(=O)c4ccc(Cl)cc4)cc3c2)c1C [Compound C136]

- Firefly, cmpd/DMSO repeat 1 (Table 9, repeat 1): 2.9
- Firefly, cmpd/DMSO repeat 2 (Table 9, repeat 2): 1.8
Compound: COc1cccc2cc(S(=O)(=O)c3cc(F)cc(F)c3)c(=O)oc12 [Compound C229]

- Firefly, cmpd/DMSO repeat 1 [1]: 2.1
- Firefly, cmpd/DMSO repeat 2 [2]: 2.5
Compound: Cc1cc(C)cc(S(=O)(=O)c2cc3cc(F)ccc3oc2=O)c1 [Compound C190]

- Firefly, cmpd/DMSO repeat 1 [1]: 1.8
- Firefly, cmpd/DMSO repeat 2 [2]: 2.2
Compound: COc1ccc2cc(S(=O)(=O)c3cc(F)cc(F)c3)c(=O)oc2c1 [Compound C262]

— patent publication US11377442B2, “Small molecule agonists and antagonists of NR2F6 activity” (ZANDER THERAPEUTICS, INC., priority 2016, dated 2022)
